Here are results for 2 molecules from ChEMBL document CHEMBL5725522, “Inhibitors of bruton's tyrosine kinase” (2017).

By IC50 is commonly meant the point on the concentration scale where inhibition reaches its midpoint.

The target of the test is Tyrosine-protein kinase BTK (Homo sapiens, UniProt Q06187). In words: TR-FRET (Time Resolved FRET) Assay: This BTK competition assay measures compound potency (IC50) for the inactivated state of Bruton's Tyrosine Kinase using FRET (Förster/Fluorescence Resonance Energy Transfer) technology. The BTK-Eu complex was incubated on ice one hour prior to use at a starting concentration of 50 nM BTK-Bioease: 10 nM Eu-streptavidin (Perkin-Elmer Catalog#AD0062). The assay buffer consisted of 20 mM HEPES (pH 7.15), 0.1 mM DTT, 10 mM MgCl2, 0.5 mg/ml BSA with 3% Kinase Stabilizer (Fremont Biosolutions, Catalog #STB-K02). After 1 h, the reaction mixture from above was diluted 10 fold in assay buffer to make 5 nM BTK: 1 nM Eu-Streptavidin complex (donor fluorophore). 18 μl of a mixture of 0.11 nM BTK-Eu and 0.11 nM Kinase Tracer 178 (Invitrogen, Catalog #PV5593,) with BTK-Eu alone as no negative control, was then dispensed into 384-well flat bottom plates (Greiner, 784076). Compounds to be tested in assay were prepared as 10× concentrations and serial dilution in half-log increments was performed in DMSO so as to generate 10 point curves. […].
Tyrosine-protein kinase BTK, sequence (Q06187 whole entry): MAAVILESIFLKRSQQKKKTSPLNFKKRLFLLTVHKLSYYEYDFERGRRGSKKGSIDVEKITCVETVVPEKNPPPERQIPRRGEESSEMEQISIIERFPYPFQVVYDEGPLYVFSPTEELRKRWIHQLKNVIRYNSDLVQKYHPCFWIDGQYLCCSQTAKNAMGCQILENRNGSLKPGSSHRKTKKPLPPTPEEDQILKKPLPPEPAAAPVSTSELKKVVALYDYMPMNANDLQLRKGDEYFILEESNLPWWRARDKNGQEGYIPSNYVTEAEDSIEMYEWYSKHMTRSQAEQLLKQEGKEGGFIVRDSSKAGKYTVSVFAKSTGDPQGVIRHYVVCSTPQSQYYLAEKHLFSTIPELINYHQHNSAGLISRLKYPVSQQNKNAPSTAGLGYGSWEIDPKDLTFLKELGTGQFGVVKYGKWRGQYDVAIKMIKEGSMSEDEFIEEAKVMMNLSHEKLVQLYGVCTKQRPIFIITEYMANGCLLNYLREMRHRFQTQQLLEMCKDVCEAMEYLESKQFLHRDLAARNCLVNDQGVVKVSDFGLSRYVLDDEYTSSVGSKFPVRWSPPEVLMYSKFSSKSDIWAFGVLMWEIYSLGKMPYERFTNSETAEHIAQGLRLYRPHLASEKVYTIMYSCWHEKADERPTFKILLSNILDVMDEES

In the case of `O=C(c1cc2cc(C(=O)N3CCOCC3)ccc2[nH]1)c1cnn2c1[nH]c(=O)c1cc(Oc3cccc(F)c3F)ccc12`, the IC50 is over 100000 nM.
Under `CN1CCC(NC(=O)c2ccc3[nH]c(C(=O)c4cnn(-c5ccc(Oc6ccccc6C(=O)N(C)C)cc5Cl)c4N)cc3c2)C1` (configuration not stated) stands 2.9 nM.
